Results: ChEMBL document CHEMBL3045038, “Structure-based predictive model for some benzimidazole inhibitors of hepatitis C virus NS5B polymerase” (Med Chem Res, 2013)

molecular target: RNA-directed RNA polymerase (Hepacivirus hominis, UniProt O39930); assay: Inhibition of Hepatitis C virus genotype 1 NS5B polymerases lacking C-terminal 47 amino acid residues expressed in Escherichia coli after 60 min

| SMILES | IC50 [nM] |
| --- | --- |
| O=C(O)c1ccc2c(c1)nc(-c1ccc(OCc3cc(N4CCCC4=O)ccc3-c3ccc(Cl)cc3)cc1F)n2C1CCCCC1 | 12 |
| Cc1ncc(COc2ccc(-c3nc4cc(C(=O)O)ccc4n3C3CCCCC3)c(F)c2)c(-c2ccc(Cl)cc2)n1 | 188 |
| CC(=O)NC(=O)c1ccc(-c2ccc(Cl)cc2)c(COc2ccc(-c3nc4cc(C(=O)O)ccc4n3C3CCCCC3)c(F)c2)c1 | 14 |
| NC(=O)c1ccc(-c2ccc(Cl)cc2)c(COc2ccc(-c3nc4cc(C(=O)O)ccc4n3C3CCCCC3)c(F)c2)c1 | 13 |
